Experimental data as given in patent US20250163057A1, “DCN-1 MODULATING COMPOUNDS AND METHODS OF USE THEREOF” (Cellarity, Inc., priority 2023, published 2025).
pIC50: −log10 of the molar value. Where two headings read alike, the source gives them in different places.

Tests used:
[1] = target: DCN1 (DCUND1) protein PONY domain (Homo sapiens (Human), UniProt Q96GG9); test: TR-FRET assay, DCN1 binding with FAM-labeled probe; conditions: for IC50: TR FRET IC50 1 hr (nM)
Summary of the method: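 First, the E. coli-derived PONY domain was biotinylated and paired with streptavidin Tb cryptate. Compounds in 0.1% DMSO were then added to DCN1 and FAM-probe (5 nM/20 nM, or 0.31 nM/900 nM total with 800 nM unlabelled) in TritonX, 200 mM NaCl buffer. Finally, TR-FRET ratios were recorded at 1, 5 and 24 hrs.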

[2] = target: DCN1 protein (Homo sapiens (Human), UniProt Q96GG9); test: Intact Protein MS Analysis with the RapidFire-TOF System (covalent adduct formation); type: binding; conditions: MS Emax; 400 nM DCN1, 3 hours at room temperature
Summary of the method: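 Tag-cleaved human DCN1 (400 nM) expressed in E. coli, in 25 mM Tris-HCl, 200 mM NaCl, 1 mM DTT, was incubated with 11 compound concentrations for 3 h at room temperature and quenched with 0.2% formic acid. Intact-protein Q-TOF MS with deconvolution detected the compound adduct mass.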

[3] = system: Cullin-3 (CUL3) neddylation; test: AlphaLISA assay for Cullin-3 (CUL3) neddylation in TF 1 cells; type: cell-based; conditions: Homo sapiens, 3 hours treatment
Summary of the method: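 Neddylated CUL3 was quantified by AlphaLISA in lysates of TF 1 cells exposed for 3 h to test compound in IMDM without supplements. Percent inhibition set between vehicle and 1 μM DI-1548 positive control; IC50 derived by Hill-equation fitting of dose-response curves.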

[4] = 24 hr after treatment with compound, read-out: TR FRET IC50 24 hr
[5] = 1 hr after treatment with compound
[6] = read-out: TR FRET IC50 1 hr, 1 hr after treatment with compound

DCN1 (DCUND1) protein PONY domain, sequence (Q96GG9 60-248): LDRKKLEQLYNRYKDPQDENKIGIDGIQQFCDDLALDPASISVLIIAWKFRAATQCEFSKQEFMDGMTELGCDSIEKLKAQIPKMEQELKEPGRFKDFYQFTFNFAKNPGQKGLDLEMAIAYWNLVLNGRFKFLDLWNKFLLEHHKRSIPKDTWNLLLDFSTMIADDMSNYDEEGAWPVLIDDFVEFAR
DCN1 protein, sequence (Q96GG9 whole entry): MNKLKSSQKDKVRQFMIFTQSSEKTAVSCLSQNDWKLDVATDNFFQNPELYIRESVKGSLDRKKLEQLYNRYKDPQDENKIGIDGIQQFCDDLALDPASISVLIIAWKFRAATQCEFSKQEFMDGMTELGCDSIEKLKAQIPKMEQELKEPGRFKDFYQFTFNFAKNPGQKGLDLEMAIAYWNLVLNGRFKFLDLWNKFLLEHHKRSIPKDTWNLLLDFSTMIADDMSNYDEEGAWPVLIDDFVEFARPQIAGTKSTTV

## CCN1C(=O)[C@@H](NC(=O)c2cccc(C(F)(F)F)c2)[C@@H](c2ccc(F)cc2)c2c(C(=O)N(C)[C@@H](C)C#N)nn(-c3ccccc3)c21 (single isomer, unassigned) [Compound I-300, (4S,5S)—N—((S*)-1-cyanoethyl)-7-ethyl-4-(4-fluorophenyl)-N-methyl-6-oxo-1-phenyl-5-(3-(trifluoromethyl)benzamido)-4,5,6,7-tetrahydro-1H-pyrazolo[3,4-b]pyridine-3-carboxamide]
[1]; [4]
  pIC50: ≥ 6.70
[1]; [5]
  IC50: ≤ 200 nM
[2]
  % Adduct Formation: +++ (MS Emax % adduct formation greater than 80.0 and less than or equal to 100.0)
[3]; TF-1, 3 h
  pIC50: ≥ 7.00

## CCN1C(=O)[C@@H](NC(=O)c2ccn(C(F)(F)F)n2)[C@@H](c2ccc(F)cc2)c2c(C(=O)N3[C@H](C#N)C[C@H]4C[C@H]43)nn(-c3ccccc3)c21 [Compound I-344]
[1]; [4]
  pIC50: ≥ 6.70
[1]; [5]
  IC50: 200 to 1000 nM
[2]
  % Adduct Formation: ++ (MS Emax % adduct formation greater than 30.0 and less than or equal to 80.0)
[3]; TF-1, 3 h
  pIC50: ≥ 7.00

## CCN1C(=O)[C@@H](NC(=O)c2cccc(SC(F)(F)F)c2)[C@@H](C2CC2)c2c(C(=O)N3[C@H](C#N)C[C@H]4C[C@H]43)nn(C3CCOCC3)c21 [Compound I-389]
[1]; [4]
  pIC50: ≥ 6.70
[1]; [6]
  pIC50: ≥ 6.70
[2]
  % Adduct Formation: +++ (MS Emax % adduct formation greater than 80.0 and less than or equal to 100.0)
[3]
  pIC50: ≥ 7.00

## CCN1C(=O)[C@@H](NC(=O)c2cccc(C(F)(F)F)c2)[C@@H](c2ccc(F)cc2)c2c(C(=O)N(C)[C@@H](C#N)CCN3CCC34COC4)nn(-c3ccccc3)c21 [Compound I-315]
[1]; [4]
  pIC50: ≥ 6.70
[1]; [6]
  pIC50: ≥ 6.70
[2]
  % Adduct Formation: +++ (MS Emax % adduct formation greater than 80.0 and less than or equal to 100.0)
[3]; TF-1, 3 h
  pIC50: ≥ 7.00

## CCN1C(=O)[C@@H](NC(=O)c2cccc(C(F)(F)F)c2)[C@@H](c2ccc(F)cc2)c2c(C(=O)N(C)[C@@H](C)C#N)nn(C3CCOCC3)c21 [Compound I-368]
[1]; [4]
  pIC50: ≥ 6.70
[1]; [6]
  pIC50: ≥ 6.70
[2]
  % Adduct Formation: +++ (MS Emax % adduct formation greater than 80.0 and less than or equal to 100.0)
[3]; TF-1, 3 h
  pIC50: ≥ 7.00

## CCN1C(=O)[C@@H](NC(=O)c2cccc(C(F)(F)F)c2)[C@@H](c2ccc(F)cc2)c2c(C(=O)N(CC#N)CCN(C)C3COC3)nn(-c3ccccc3)c21 (racemic) [Compound I-321]
[1]; [4]
  pIC50: ≥ 6.70
[1]; [6]
  pIC50: ≥ 6.70
[2]
  % Adduct Formation: +++ (MS Emax % adduct formation greater than 80.0 and less than or equal to 100.0)
[3]; TF-1, 3 h
  pIC50: ≥ 7.00

## CCN1C(=O)[C@@H](NC(=O)c2cccc(C(F)(F)F)c2)[C@@H](c2ccc(F)cc2)c2c(C(=O)N(CC#N)C3CC3)nn(C3CCOCC3)c21 [Compound I-351]
[1]; [4]
  pIC50: ≥ 6.70
[1]; [6]
  pIC50: ≥ 6.70
[2]
  % Adduct Formation: +++ (MS Emax % adduct formation greater than 80.0 and less than or equal to 100.0)
[3]; TF-1, 3 h
  pIC50: ≥ 7.00

## CCN1C(=O)[C@@H](NC(=O)c2csc(C(F)(F)F)n2)[C@@H](C2CC2)c2c(C(=O)N3[C@H](C#N)C[C@H]4C[C@H]43)nn(C3CCOCC3)c21 [Compound I-392]
[1]; [4]
  pIC50: ≥ 6.70
[1]; [6]
  pIC50: ≥ 6.70
[2]
  % Adduct Formation: +++ (MS Emax % adduct formation greater than 80.0 and less than or equal to 100.0)
[3]
  pIC50: ≥ 7.00

## CCN1C(=O)[C@@H](NC(=O)c2cccc(C(F)(F)F)c2)[C@@H](c2ccc(F)cc2)c2c(C(=O)N(C)[C@H](C#N)CCN3CC4CC(C3)O4)nn(-c3ccccc3)c21 [Compound I-312]
[1]; [4]
  pIC50: ≥ 6.70
[1]; [6]
  pIC50: ≥ 6.70
[2]
  % Adduct Formation: +++ (MS Emax % adduct formation greater than 80.0 and less than or equal to 100.0)
[3]; TF-1, 3 h
  pIC50: ≥ 7.00

## CCN1C(=O)[C@@H](NC(=O)c2cccc3c2OCO3)[C@@H](C2CC2)c2c(C(=O)N3[C@H](C#N)C[C@H]4C[C@H]43)nn(C3CCOCC3)c21 [Compound I-397]
[1]; [4]
  pIC50: ≥ 6.70
[1]; [6]
  pIC50: ≥ 6.70
[2]
  % Adduct Formation: +++ (MS Emax % adduct formation greater than 80.0 and less than or equal to 100.0)
[3]
  pIC50: ≥ 7.00

## CCN1C(=O)[C@@H](NC(=O)c2cccc(C(F)(F)F)c2)[C@@H](c2ccc(F)cc2)c2c(C(=O)N(C)[C@@H](C#N)CCO)nn(-c3ccccc3)c21 (relative stereo) [Compound I-290, (4S,5S)—N-[(1R*)-1-cyano-3-hydroxypropyl]-7-ethyl-4-(4-fluorophenyl)-N-methyl-6-oxo-1-phenyl-5-[3-(trifluoromethyl)benzamido]-4H,5H-pyrazolo[3,4-b]pyridine-3-carboxamide]
[1]; [4]
  pIC50: ≥ 6.70
[1]; [5]
  IC50: ≤ 200 nM
[2]
  % Adduct Formation: + (MS Emax % adduct formation greater than or equal to 0.0 and less than or equal to 30.0)
[3]; TF-1, 3 h
  pIC50: ≥ 7.00
